Experimental data: PMC2806030, “Inhibition of mammalian S6 kinase by resveratrol suppresses autophagy” (Aging (Albany NY), 2009)

Tests used:
Experiment in all cases: biochemical
Design in all cases: Upstate KinaseProfiler in vitro kinase activity assay, per cent of DMSO control
Conditions in all cases: read-out: Activity (% of Control)
PKBγ(h) = molecular target: T1, PKBγ(h) (Homo sapiens, UniProt Q9Y243)
T1 construct: gene AKT3
In short: (§1)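 Profiling done with Upstate KinaseProfiler service across 100 kinases, resveratrol tested at 20 μM; activity expressed relative to control.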

LKB1(h) = molecular target: T2, LKB1(h) (Homo sapiens, UniProt Q15831)
T2 construct: gene STK11
In short: as §1

EGFR(h) = EGFR(h) (Homo sapiens, UniProt P00533)
In short: as §1

SGK(h) = molecular target: T3, SGK(h) (Homo sapiens, UniProt O00141)
T3 construct: gene SGK1
In short: as §1

Rsk1(h) = molecular target: T4, Rsk1(h) (Homo sapiens, UniProt Q15418)
T4 construct: gene RPS6KA1
In short: as §1

SIK(h) = molecular target: T5, SIK(h) (Homo sapiens, UniProt P57059)
T5 construct: gene SIK1
In short: as §1

DAPK1(h) = DAPK1(h) (Homo sapiens, UniProt P53355)
In short: as §1

PKD2(h) = molecular target: T6, PKD2(h) (Homo sapiens, UniProt Q9BZL6)
T6 construct: gene PRKD2
In short: as §1

PKCθ(h) = molecular target: T7, PKCθ(h) (Homo sapiens, UniProt Q04759)
T7 construct: gene PRKCQ
In short: as §1

FGFR1(h) = FGFR1(h) (Homo sapiens, UniProt P11362)
In short: as §1

NLK = NLK (Homo sapiens, UniProt Q9UBE8)
In short: as §1

IKKß(h) = molecular target: T8, IKKß(h) (Homo sapiens, UniProt O14920)
T8 construct: gene IKBKB
In short: as §1

GSK3ß(h) = molecular target: T9, GSK3ß(h) (Homo sapiens, UniProt P49841)
T9 construct: gene GSK3B
In short: as §1

MEK1(h) = molecular target: T10, MEK1(h) (Homo sapiens, UniProt Q02750)
T10 construct: gene MAP2K1
In short: as §1

MST2(h) = molecular target: T11, MST2(h) (Homo sapiens, UniProt Q13188)
T11 construct: gene STK3
In short: as §1

Tie2(h) = molecular target: T12, Tie2(h) (Homo sapiens, UniProt Q02763)
T12 construct: gene TEK
In short: as §1

JNK2α2(h) = molecular target: T13, JNK2α2(h) (Homo sapiens, UniProt P45984)
T13 construct: gene MAPK9; isoform alpha2
In short: as §1

Plk3(h) = Plk3(h) (Homo sapiens, UniProt Q9H4B4)
In short: as §1

T5 sequence (P57059 whole entry): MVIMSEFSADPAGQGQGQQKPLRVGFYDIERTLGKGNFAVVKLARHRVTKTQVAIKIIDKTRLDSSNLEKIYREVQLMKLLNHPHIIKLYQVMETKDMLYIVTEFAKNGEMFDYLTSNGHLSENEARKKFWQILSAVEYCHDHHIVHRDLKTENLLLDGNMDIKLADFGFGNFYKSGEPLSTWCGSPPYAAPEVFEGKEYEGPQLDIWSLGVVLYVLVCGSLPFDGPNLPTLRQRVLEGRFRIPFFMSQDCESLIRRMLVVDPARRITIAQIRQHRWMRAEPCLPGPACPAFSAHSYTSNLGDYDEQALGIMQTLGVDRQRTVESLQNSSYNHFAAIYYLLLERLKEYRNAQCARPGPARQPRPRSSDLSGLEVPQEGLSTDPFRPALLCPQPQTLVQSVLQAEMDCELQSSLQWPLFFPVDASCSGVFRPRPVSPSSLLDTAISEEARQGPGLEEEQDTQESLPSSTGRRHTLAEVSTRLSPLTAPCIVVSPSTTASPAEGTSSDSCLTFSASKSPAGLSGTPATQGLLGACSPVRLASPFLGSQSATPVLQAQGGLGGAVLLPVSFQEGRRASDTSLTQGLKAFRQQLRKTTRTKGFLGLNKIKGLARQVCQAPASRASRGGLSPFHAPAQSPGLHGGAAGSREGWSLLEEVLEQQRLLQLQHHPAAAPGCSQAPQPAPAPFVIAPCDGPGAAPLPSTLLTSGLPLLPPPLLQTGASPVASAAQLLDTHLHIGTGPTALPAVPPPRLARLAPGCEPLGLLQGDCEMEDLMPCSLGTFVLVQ
T10 sequence (Q02750 whole entry): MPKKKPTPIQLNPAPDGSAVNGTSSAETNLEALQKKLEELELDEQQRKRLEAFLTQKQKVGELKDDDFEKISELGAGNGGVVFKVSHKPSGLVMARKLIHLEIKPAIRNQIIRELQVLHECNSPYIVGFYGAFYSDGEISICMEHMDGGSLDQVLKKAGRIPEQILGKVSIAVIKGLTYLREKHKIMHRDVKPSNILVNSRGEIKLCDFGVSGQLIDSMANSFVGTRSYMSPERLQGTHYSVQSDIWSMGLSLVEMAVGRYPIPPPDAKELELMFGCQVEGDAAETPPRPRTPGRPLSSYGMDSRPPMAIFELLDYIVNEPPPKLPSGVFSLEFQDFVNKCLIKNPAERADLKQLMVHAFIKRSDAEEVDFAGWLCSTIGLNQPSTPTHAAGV
T1 sequence (Q9Y243 whole entry): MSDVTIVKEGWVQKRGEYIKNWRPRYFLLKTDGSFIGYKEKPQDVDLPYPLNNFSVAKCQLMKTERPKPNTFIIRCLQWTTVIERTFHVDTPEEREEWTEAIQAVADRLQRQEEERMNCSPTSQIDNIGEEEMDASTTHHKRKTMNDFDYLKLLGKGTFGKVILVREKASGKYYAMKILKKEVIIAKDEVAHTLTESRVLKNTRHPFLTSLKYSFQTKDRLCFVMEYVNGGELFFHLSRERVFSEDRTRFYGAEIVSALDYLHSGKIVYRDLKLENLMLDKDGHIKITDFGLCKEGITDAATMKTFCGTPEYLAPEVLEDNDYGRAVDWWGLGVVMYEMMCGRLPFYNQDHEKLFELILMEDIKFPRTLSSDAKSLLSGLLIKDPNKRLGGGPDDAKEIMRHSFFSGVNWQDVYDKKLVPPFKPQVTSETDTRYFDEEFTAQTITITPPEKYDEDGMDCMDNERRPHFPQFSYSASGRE
T9 sequence (P49841 whole entry): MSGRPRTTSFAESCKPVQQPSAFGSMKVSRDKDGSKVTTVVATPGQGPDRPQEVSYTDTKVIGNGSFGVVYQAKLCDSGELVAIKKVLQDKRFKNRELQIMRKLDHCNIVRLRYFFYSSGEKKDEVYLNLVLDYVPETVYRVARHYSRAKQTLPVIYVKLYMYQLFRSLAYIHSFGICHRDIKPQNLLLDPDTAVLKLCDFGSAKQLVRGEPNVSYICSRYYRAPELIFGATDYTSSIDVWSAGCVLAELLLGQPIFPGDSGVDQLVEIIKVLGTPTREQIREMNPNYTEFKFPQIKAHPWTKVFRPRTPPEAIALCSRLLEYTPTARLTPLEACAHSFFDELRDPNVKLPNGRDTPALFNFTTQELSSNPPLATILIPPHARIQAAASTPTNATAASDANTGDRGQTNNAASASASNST
T12 sequence (Q02763 whole entry): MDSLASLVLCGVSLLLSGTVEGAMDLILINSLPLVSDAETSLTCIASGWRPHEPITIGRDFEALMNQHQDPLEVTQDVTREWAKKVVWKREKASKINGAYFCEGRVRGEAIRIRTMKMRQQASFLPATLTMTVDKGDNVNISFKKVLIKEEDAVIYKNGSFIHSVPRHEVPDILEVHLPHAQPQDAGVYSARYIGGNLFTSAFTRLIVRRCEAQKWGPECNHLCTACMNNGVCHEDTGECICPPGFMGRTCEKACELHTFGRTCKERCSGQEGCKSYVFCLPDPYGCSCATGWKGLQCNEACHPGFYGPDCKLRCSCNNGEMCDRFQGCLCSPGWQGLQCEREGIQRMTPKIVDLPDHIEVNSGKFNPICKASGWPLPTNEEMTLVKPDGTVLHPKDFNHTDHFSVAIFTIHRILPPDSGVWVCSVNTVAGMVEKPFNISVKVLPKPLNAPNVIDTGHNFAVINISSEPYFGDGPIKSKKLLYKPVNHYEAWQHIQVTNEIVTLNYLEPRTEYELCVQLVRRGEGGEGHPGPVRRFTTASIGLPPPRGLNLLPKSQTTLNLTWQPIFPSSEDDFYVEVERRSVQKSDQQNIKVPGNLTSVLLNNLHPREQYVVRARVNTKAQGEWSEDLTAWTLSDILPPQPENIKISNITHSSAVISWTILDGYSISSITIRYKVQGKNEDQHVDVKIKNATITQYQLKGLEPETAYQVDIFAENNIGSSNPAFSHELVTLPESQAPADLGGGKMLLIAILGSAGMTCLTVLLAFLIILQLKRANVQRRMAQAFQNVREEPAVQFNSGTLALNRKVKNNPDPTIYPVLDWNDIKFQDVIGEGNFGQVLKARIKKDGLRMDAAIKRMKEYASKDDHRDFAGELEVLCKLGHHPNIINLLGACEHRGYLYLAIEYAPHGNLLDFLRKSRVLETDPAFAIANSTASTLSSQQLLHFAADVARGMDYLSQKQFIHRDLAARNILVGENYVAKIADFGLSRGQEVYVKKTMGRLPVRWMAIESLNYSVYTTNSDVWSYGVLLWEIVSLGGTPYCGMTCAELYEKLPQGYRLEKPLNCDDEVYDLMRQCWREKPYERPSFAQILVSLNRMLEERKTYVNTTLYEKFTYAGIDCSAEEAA
FGFR1(h), sequence (P11362 whole entry): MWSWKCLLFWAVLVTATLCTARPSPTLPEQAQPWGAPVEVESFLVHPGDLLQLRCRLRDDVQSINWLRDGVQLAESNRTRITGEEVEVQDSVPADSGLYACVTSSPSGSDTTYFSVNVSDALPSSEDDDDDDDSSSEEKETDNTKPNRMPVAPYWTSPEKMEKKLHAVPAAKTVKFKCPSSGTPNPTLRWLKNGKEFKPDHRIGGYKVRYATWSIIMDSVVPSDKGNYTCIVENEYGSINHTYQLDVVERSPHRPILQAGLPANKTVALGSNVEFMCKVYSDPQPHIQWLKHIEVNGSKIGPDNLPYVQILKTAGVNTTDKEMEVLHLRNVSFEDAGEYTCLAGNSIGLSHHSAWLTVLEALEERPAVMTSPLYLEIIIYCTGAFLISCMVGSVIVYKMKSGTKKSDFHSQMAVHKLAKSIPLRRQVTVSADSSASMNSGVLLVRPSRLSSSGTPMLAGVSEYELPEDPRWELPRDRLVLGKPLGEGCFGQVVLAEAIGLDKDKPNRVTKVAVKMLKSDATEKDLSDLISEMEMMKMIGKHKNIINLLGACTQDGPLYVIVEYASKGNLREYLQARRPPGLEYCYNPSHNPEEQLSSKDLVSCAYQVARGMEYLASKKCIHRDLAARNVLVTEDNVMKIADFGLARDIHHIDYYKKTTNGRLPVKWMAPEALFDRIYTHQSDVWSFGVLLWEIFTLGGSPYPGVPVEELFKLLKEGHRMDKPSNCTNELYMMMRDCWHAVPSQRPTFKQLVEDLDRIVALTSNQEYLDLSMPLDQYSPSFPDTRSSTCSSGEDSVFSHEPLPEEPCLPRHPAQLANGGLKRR
T11 sequence (Q13188 whole entry): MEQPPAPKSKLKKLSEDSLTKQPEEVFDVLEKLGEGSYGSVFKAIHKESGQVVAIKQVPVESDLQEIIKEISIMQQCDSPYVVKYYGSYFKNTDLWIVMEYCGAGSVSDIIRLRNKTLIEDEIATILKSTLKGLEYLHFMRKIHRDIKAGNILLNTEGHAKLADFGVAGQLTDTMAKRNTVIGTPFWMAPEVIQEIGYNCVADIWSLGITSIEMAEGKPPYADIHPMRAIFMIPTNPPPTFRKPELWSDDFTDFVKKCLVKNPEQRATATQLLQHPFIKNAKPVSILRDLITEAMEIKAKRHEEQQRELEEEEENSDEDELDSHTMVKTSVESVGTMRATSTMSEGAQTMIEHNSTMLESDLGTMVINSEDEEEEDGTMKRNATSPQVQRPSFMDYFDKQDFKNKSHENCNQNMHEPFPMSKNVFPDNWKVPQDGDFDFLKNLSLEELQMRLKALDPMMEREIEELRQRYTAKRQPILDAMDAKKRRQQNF
NLK, sequence (Q9UBE8 whole entry): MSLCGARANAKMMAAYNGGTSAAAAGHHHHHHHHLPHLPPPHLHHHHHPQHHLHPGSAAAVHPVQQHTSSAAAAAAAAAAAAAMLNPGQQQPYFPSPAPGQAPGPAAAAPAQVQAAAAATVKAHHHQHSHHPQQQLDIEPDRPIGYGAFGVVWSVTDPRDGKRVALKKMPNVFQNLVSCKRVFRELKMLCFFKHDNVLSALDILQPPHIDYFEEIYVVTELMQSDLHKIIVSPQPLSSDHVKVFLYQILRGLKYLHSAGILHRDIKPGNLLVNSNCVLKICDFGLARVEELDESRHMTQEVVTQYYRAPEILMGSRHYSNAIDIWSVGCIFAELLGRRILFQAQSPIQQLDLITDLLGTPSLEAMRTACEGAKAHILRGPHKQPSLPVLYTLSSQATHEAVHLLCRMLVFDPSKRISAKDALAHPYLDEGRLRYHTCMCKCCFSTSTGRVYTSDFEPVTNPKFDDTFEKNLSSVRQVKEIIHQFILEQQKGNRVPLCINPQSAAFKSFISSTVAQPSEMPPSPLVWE

## Oc1ccc(/C=C/c2cc(O)cc(O)c2)cc1 [Res, resveratrol]
PKBγ(h)
  remaining activity at 20 µM: 89 ± 4%
LKB1(h)
  remaining activity at 20 µM: 102 ± 3%
EGFR(h)
  remaining activity at 20 µM: 90 ± 5%
SGK(h)
  remaining activity at 20 µM: 86 ± 13%
Rsk1(h)
  remaining activity at 20 µM: 70 ± 1%
SIK(h)
  remaining activity at 20 µM: 76 ± 1%
DAPK1(h)
  remaining activity at 20 µM: 71 ± 3%
PKD2(h)
  remaining activity at 20 µM: 88 ± 5%
PKCθ(h)
  remaining activity at 20 µM: 99 ± 5%
FGFR1(h)
  remaining activity at 20 µM: 58 ± 2%
NLK
  remaining activity at 20 µM: 30 ± 2%
IKKß(h)
  remaining activity at 20 µM: 116 ± 2%
GSK3ß(h)
  remaining activity at 20 µM: 92%
MEK1(h)
  remaining activity at 20 µM: 110 ± 5%
MST2(h)
  remaining activity at 20 µM: 73 ± 8%
Tie2(h)
  remaining activity at 20 µM: 94 ± 8%
JNK2α2(h)
  remaining activity at 20 µM: 110 ± 4%
Plk3(h)
  remaining activity at 20 µM: 95 ± 9%
